Reference: the NIST ThermoML archive (doi:10.1021/je900050z)
Several values for one entry are separate records, joined by “and”; a condition that tells them apart may be missing. Equal entries are not always repeated.

Settings: Liquid

CCC(C)O (centres undefined) [butan-2-ol]
Settings	vapor or sublimation pressure [kPa]
314.47 K	6.08
315.36 K	6.43
316.21 K	6.81
317.61 K	7.45
318.57 K	7.92
319.37 K	8.35
319.58 K	8.45
320.18 K	8.77
321.05 K	9.23
322.03 K	9.8
322.68 K	10.19
323.15 K	10.48
323.41 K	10.64
324.05 K	11.04
324.72 K	11.47
325.27 K	11.84
325.92 K	12.31
326.66 K	12.81
327.32 K	13.16
328.28 K	14.03
329.05 K	14.61
329.91 K	15.31
330.49 K	15.79
331.11 K	16.31
331.58 K	16.71
332.17 K	17.25
332.81 K	17.87
333.15 K	18.2
333.28 K	18.33
333.65 K	18.68
334.23 K	19.24
334.69 K	19.71
335.19 K	20.2
335.69 K	20.71
336.28 K	21.33
336.77 K	21.85
337.23 K	22.35
337.72 K	22.87
338.08 K	23.28
338.6 K	23.87
339.07 K	24.43
339.5 K	24.95
339.9 K	25.43
340.34 K	25.97
340.95 K	26.79
341.4 K	27.36
341.87 K	27.99
342.34 K	28.63
342.89 K	29.37
343.15 K	29.76
343.32 K	29.97
343.81 K	30.67
344.25 K	31.31
344.71 K	31.99
345.14 K	32.63
345.6 K	33.33
346.02 K	33.99
346.45 K	34.67
346.86 K	35.32
347.28 K	36.01
347.65 K	36.63
348.06 K	37.31
348.45 K	37.99
348.85 K	38.64
349.21 K	39.29
349.58 K	39.95
350.15 K	40.97
350.75 K	42.05
351.25 K	43.03
351.74 K	43.96
352.26 K	44.97
353.08 K	46.6
353.15 K	46.75
353.6 K	47.65
354.06 K	48.61
354.53 K	49.61
355 K	50.63
355.45 K	51.63
355.81 K	52.39
356.23 K	53.33
356.8 K	54.63
357.37 K	55.96
357.99 K	57.41
358.5 K	58.67
359.06 K	60.03
359.62 K	61.41
360.13 K	62.73
360.61 K	63.97
361.1 K	65.29
361.64 K	66.71
362.1 K	67.99
362.63 K	69.43
363.07 K	70.69
363.57 K	72.12
364 K	73.36
364.48 K	74.72
364.9 K	76
365.33 K	77.31
365.76 K	78.65
366.18 K	79.95
366.63 K	81.35
367.04 K	82.63
367.47 K	84.03
367.88 K	85.39
368.27 K	86.71
368.68 K	88.05
369.08 K	89.41
369.43 K	90.67
369.79 K	91.91
370.19 K	93.33
370.56 K	94.44
370.94 K	96
371.32 K	97.35
371.65 K	98.59

C1CCCCC1 [cyclohexane]
Settings	vapor or sublimation pressure
295.42 K	11.15 kPa
295.45 K	11.16 kPa
295.46 K	11.17 kPa
295.72 K	11.33 kPa
295.75 K	11.35 kPa
296.22 K	11.63 kPa
297.08 K	12.15 kPa
297.13 K	12.16 kPa and 12.17 kPa
297.86 K	12.61 kPa
297.99 K	12.71 kPa
298.83 K	13.23 kPa
299.75 K	13.8 kPa
299.77 K	13.81 kPa
300.85 K	14.52 kPa
302.63 K	15.71 kPa
303.02 K	16.03 kPa
303.15 K	16.11 kPa
304.38 K	17.04 kPa
304.4 K	17.05 kPa
304.42 K	17.07 kPa
306.05 K	18.33 kPa
306.4 K	18.6 kPa
307.45 K	19.4 kPa
308.06 K	19.91 kPa
309.5 K	21.12 kPa
310.98 K	22.47 kPa
312.48 K	23.89 kPa
313.15 K	24.56 kPa
313.84 K	25.25 kPa
315.01 K	26.47 kPa
315.26 K	26.67 kPa
316.32 K	27.88 kPa
317.51 K	29.23 kPa
318.31 K	30.09 kPa
318.67 K	30.56 kPa
319.81 K	31.93 kPa
320.87 K	33.27 kPa
321.91 K	34.59 kPa
321.99 K	34.69 kPa
322.94 K	35.95 kPa
323.15 K	36.27 kPa
323.44 K	36.59 kPa
323.88 K	37.23 kPa
323.95 K	37.33 kPa
324.83 K	38.56 kPa
326.12 K	40.45 kPa
326.68 K	41.25 kPa
327.61 K	42.68 kPa
328.43 K	43.97 kPa
329.32 K	45.4 kPa
329.35 K	45.43 kPa
330.05 K	46.59 kPa
330.94 K	48.07 kPa
331.68 K	49.32 kPa
332.02 K	49.89 kPa
332.41 K	50.6 kPa
333.11 K	51.87 kPa
333.15 K	51.92 kPa
333.83 K	53.15 kPa
333.86 K	53.19 kPa
334.53 K	54.47 kPa
335.26 K	55.85 kPa
335.64 K	56.56 kPa
335.95 K	57.19 kPa
336.7 K	58.63 kPa
337.36 K	59.96 kPa
338.06 K	61.39 kPa and 61.4 kPa
338.65 K	62.63 kPa
338.67 K	62.64 kPa
339.29 K	63.95 kPa
339.92 K	65.29 kPa
340.54 K	66.63 kPa
341.12 K	67.95 kPa
341.72 K	69.29 kPa
342.32 K	70.65 kPa
342.88 K	71.93 kPa
343.15 K	72.6 kPa
343.43 K	73.25 kPa
344.05 K	74.73 kPa
344.55 K	75.96 kPa
345.08 K	77.27 kPa
345.69 K	78.76 kPa
346.18 K	80 kPa
346.67 K	81.25 kPa
347.18 K	82.56 kPa and 82.57 kPa
347.69 K	83.89 kPa
348.19 K	85.23 kPa
348.65 K	86.49 kPa
349.19 K	87.93 kPa
349.72 K	89.43 kPa
350.18 K	90.64 kPa
350.25 K	90.87 kPa
350.67 K	92.07 kPa
351.1 K	93.27 kPa
351.57 K	94.63 kPa
352.01 K	95.92 kPa
352.45 K	97.23 kPa
352.9 K	98.57 kPa
353.15 K	99.31 kPa
353.36 K	99.95 kPa
